# Test system: breast cancer cells
# Assay: Cell protrusion length of breast cancer cells in the networked cell-holder chip (time course imaging)
# Type: cell-based
# Excerpt: To load the cells into the chip of the present invention, a medium containing suspended cells is dropped onto the surface of the well plate of a chip of the present invention via a multichannel pipette or liquid handling system. In some embodiments of the present invention, 20-ml of the medium is dropped onto a chip of the present invention having a width of 86 mm, a length of 128 mm, and height of 14 mm. The chip is loaded on one of the receptors 302 of the bucket rotor 300. The bucket rotor is spun by the centrifuge 304 to drive the cells into the microwells of the chip. […] Filter papers (e.g., manufactured by Whatman) are used to swipe away the unloaded cells. Finally, the cells are cultured at 37° C. in the chip 100 a humidified atmosphere with 5% CO2, to enable protrusions to extend in the microchannels. The cells are also stained (for example, with green fluorescent protein—GFP) to enhance visibility of the cells and protrusions. […] The loaded breast cancer cells in both chips were incubated overnight. In the chip that was to be treated with the drug, the medium was replaced by a fresh culture medium mixed with paclitaxel concentration of 0.5 μM, after the incubation period.
compound,measurement,setting,value
CC(=O)O[C@H]1C(=O)[C@@]2(C)[C@H]([C@H](OC(=O)c3ccccc3)[C@]3(O)C[C@H](OC(=O)[C@H](O)[C@@H](NC(=O)c4ccccc4)c4ccccc4)C(C)=C1C3(C)C)[C@]1(OC(C)=O)CO[C@@H]1C[C@@H]2O [paclitaxel],time until effects of the drug on the cancer cells were clear,"breast cancer cells in chip, paclitaxel 0.5 μM",within one hour
same,normalized length of cell protrusion over time,"breast cancer cells incubated overnight in chip, then medium with paclitaxel 0.5 μM, sample of 51 cells (FIG. 29), untreated comparison 64 cells (FIG. 28)",reduces the length of the protrusions
